Results published in ChEMBL document CHEMBL1201862, “PubChem BioAssay data set” (2004).
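Compound exposure: 48 hours, 5 concentrations, 96-well plates. The concentration for 50% growth inhibition is given as GI50.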 The source made the active and inactive calls. Rule as the data show it: active = GI50 up to about 1.1 µM and inactive = higher.

Experiments:
Test in all cases: inhibition of tumour cell growth, NCI panel, 48 h
SK-MEL-28 = tested on: SK-MEL-28
786-0 = tested on: 786-0
UO-31 = tested on: UO-31
SF-539 = tested on: SF-539
DMS-114 = tested on: DMS-114
OVCAR-8 = tested on: OVCAR-8
NCI-H522 = tested on: NCI-H522
OVCAR-5 = tested on: OVCAR-5
HT-29 = tested on: HT-29
LOX IMVI = tested on: LOX IMVI
SF-295 = tested on: SF-295
UACC-257 = tested on: UACC-257
Malme-3M = tested on: Malme-3M
SNB-78 = tested on: SNB-78
HCT-116 = tested on: HCT-116
COLO 205 = tested on: COLO 205
RPMI-8226 = tested on: RPMI-8226

Measured: GI50

Clc1ccc(OCc2nnc3n2N=C(c2ccccc2)CS3)c(Cl)c1
inactive: SK-MEL-28 > 100 µM | 786-0 9.48 µM | UO-31 2.14 µM | SF-539 12.6 µM | DMS-114 > 100 µM | OVCAR-8 7.33 µM | NCI-H522 3.81 µM | OVCAR-5 5.78 µM | HT-29 5.74 µM | LOX IMVI 1.64 µM | SF-295 4.35 µM | UACC-257 56.2 µM | Malme-3M > 100 µM | SNB-78 9.42 µM | HCT-116 2.67 µM

CC(=O)C1=NN(c2ccccc2)C2(S1)SC(c1ccccc1)(c1ccccc1)c1ccccc12 (configuration not stated)
inactive: SK-MEL-28 > 100 µM | 786-0 34.5 µM | COLO 205 > 100 µM | UO-31 > 100 µM | SF-539 60.8 µM | DMS-114 32.5 µM | RPMI-8226 44.1 µM | OVCAR-8 34.9 µM | NCI-H522 22.9 µM | HT-29 95.3 µM | LOX IMVI 61.5 µM | SF-295 26.9 µM | UACC-257 34.4 µM | Malme-3M 37.4 µM | SNB-78 30.8 µM | HCT-116 24.4 µM

CCCCCCCCCCCCCC(=O)NCO
inactive: SK-MEL-28 > 100 µM | 786-0 > 100 µM | COLO 205 > 100 µM | UO-31 99.3 µM | SF-539 > 100 µM | DMS-114 > 100 µM | RPMI-8226 > 100 µM | OVCAR-8 > 100 µM | NCI-H522 86.3 µM | OVCAR-5 > 100 µM | HT-29 > 100 µM | LOX IMVI > 100 µM | SF-295 > 100 µM | UACC-257 > 100 µM | Malme-3M > 100 µM | SNB-78 > 100 µM | HCT-116 > 100 µM

CCCP1(=O)C=C(C)C(=C(Cl)Cl)C(C)=C1 (configuration not stated)
inactive: SK-MEL-28 44.1 µM | 786-0 44.5 µM | COLO 205 36.1 µM | UO-31 46.7 µM | SF-539 37.3 µM | DMS-114 36.1 µM | OVCAR-8 37.9 µM | NCI-H522 18.3 µM | OVCAR-5 > 100 µM | HT-29 43 µM | SF-295 35.2 µM | UACC-257 64.4 µM | Malme-3M 25.7 µM | SNB-78 57.3 µM | HCT-116 41.2 µM

CC/C=C\C/C=C\C1CC(=O)NCCCNCCCCN1 (configuration not stated)
inactive: SK-MEL-28 > 100 µM | 786-0 > 100 µM | COLO 205 > 100 µM | UO-31 > 100 µM | SF-539 > 100 µM | DMS-114 > 100 µM | OVCAR-8 > 100 µM | NCI-H522 55.3 µM | OVCAR-5 > 100 µM | HT-29 > 100 µM | LOX IMVI > 100 µM | SF-295 > 100 µM | UACC-257 > 100 µM | Malme-3M 15.6 µM | SNB-78 > 100 µM | HCT-116 > 100 µM

CCCCCCCCCCCC(=O)OCCOCCOCCOCCOCCOCc1ccccc1
inactive: SK-MEL-28 > 100 µM | 786-0 > 100 µM | COLO 205 > 100 µM | UO-31 > 100 µM | DMS-114 > 100 µM | RPMI-8226 > 100 µM | OVCAR-8 > 100 µM | NCI-H522 > 100 µM | OVCAR-5 > 100 µM | HT-29 > 100 µM | LOX IMVI > 100 µM | SF-295 > 100 µM | UACC-257 > 100 µM | Malme-3M > 100 µM | SNB-78 > 100 µM | HCT-116 > 100 µM

Cc1nnc2c3nnc(C)n3c3ccccc3n12
inactive: SK-MEL-28 > 100 µM | 786-0 > 100 µM | COLO 205 > 100 µM | UO-31 > 100 µM | SF-539 > 100 µM | DMS-114 > 100 µM | RPMI-8226 > 100 µM | OVCAR-8 > 100 µM | NCI-H522 > 100 µM | OVCAR-5 > 100 µM | HT-29 > 100 µM | LOX IMVI > 100 µM | SF-295 > 100 µM | UACC-257 > 100 µM | Malme-3M > 100 µM | SNB-78 > 100 µM | HCT-116 > 100 µM

COc1c(C)n(CCO)ccc1=O
inactive: SK-MEL-28 > 100 µM | 786-0 > 100 µM | COLO 205 > 100 µM | UO-31 > 100 µM | DMS-114 > 100 µM | RPMI-8226 > 100 µM | OVCAR-8 > 100 µM | NCI-H522 > 100 µM | OVCAR-5 > 100 µM | HT-29 > 100 µM | LOX IMVI > 100 µM | SF-295 > 100 µM | UACC-257 > 100 µM | Malme-3M > 100 µM | SNB-78 > 100 µM | HCT-116 > 100 µM

Cc1ccc(NC(=O)C(=O)Cc2cccc[n+]2[O-])cc1C
inactive: SK-MEL-28 > 100 µM | 786-0 > 100 µM | COLO 205 > 100 µM | UO-31 > 100 µM | SF-539 > 100 µM | DMS-114 > 100 µM | RPMI-8226 > 100 µM | OVCAR-8 > 100 µM | NCI-H522 > 100 µM | OVCAR-5 > 100 µM | HT-29 > 100 µM | LOX IMVI > 100 µM | SF-295 > 100 µM | UACC-257 > 100 µM | Malme-3M > 100 µM | SNB-78 > 100 µM | HCT-116 > 100 µM

Cc1ccc(NC(=O)CCCC(=O)CC(=O)c2ccc(Br)cc2)cc1
inactive: SK-MEL-28 > 100 µM | 786-0 > 100 µM | COLO 205 > 100 µM | UO-31 > 100 µM | SF-539 > 100 µM | DMS-114 > 100 µM | RPMI-8226 > 100 µM | OVCAR-8 > 100 µM | NCI-H522 > 100 µM | OVCAR-5 > 100 µM | HT-29 > 100 µM | LOX IMVI > 100 µM | SF-295 > 100 µM | UACC-257 > 100 µM | Malme-3M > 100 µM | SNB-78 > 100 µM | HCT-116 > 100 µM

CCCCCCCCCCCCCC(=O)OCC(C[As](=O)(O)O)OC(=O)CCCCCCCCCCCCC (configuration not stated)
inactive: SK-MEL-28 > 100 µM | 786-0 > 100 µM | UO-31 > 100 µM | SF-539 > 100 µM | DMS-114 74 µM | RPMI-8226 > 100 µM | OVCAR-8 > 100 µM | NCI-H522 > 100 µM | HT-29 > 100 µM | UACC-257 > 100 µM | Malme-3M > 100 µM | SNB-78 > 100 µM | HCT-116 > 100 µM

Brc1ccc(C[P+]2(c3ccccc3)CCCCC2)cc1.[O-][Cl+3]([O-])([O-])[O-]
inactive: SK-MEL-28 63.7 µM | 786-0 > 100 µM | COLO 205 20.5 µM | UO-31 > 100 µM | SF-539 82.4 µM | DMS-114 39.5 µM | RPMI-8226 25.8 µM | OVCAR-8 95.1 µM | NCI-H522 19 µM | OVCAR-5 > 100 µM | HT-29 38.8 µM | LOX IMVI 63.2 µM | SF-295 > 100 µM | UACC-257 23.9 µM | Malme-3M 58.5 µM | SNB-78 25.2 µM | HCT-116 68.7 µM

CCOC(=O)/N=c1/nc(N(C)C)ss1
inactive: SK-MEL-28 > 100 µM | 786-0 > 100 µM | UO-31 > 100 µM | SF-539 > 100 µM | DMS-114 > 100 µM | RPMI-8226 > 100 µM | OVCAR-8 > 100 µM | NCI-H522 > 100 µM | OVCAR-5 > 100 µM | HT-29 > 100 µM | SF-295 > 100 µM | UACC-257 > 100 µM | Malme-3M > 100 µM | SNB-78 > 100 µM | HCT-116 > 100 µM

CC(=O)NNc1nc(C)c(C(=O)/C=C/c2ccc(/C=C/C(=O)c3sc(NNC(C)=O)nc3C)cc2)s1
inactive: SK-MEL-28 > 100 µM | 786-0 > 100 µM | COLO 205 > 100 µM | UO-31 > 100 µM | SF-539 > 100 µM | DMS-114 > 100 µM | OVCAR-8 > 100 µM | NCI-H522 > 100 µM | OVCAR-5 > 100 µM | HT-29 > 100 µM | LOX IMVI > 100 µM | SF-295 > 100 µM | UACC-257 > 100 µM | Malme-3M > 100 µM | SNB-78 > 100 µM | HCT-116 > 100 µM

O=C1C=C(Nc2ccc(Cl)cc2Cl)c2ccccc2C1=O
inactive: SK-MEL-28 59.8 µM | 786-0 78.5 µM | COLO 205 > 100 µM | UO-31 43.1 µM | SF-539 > 100 µM | DMS-114 23.6 µM | RPMI-8226 46.5 µM | OVCAR-8 80 µM | NCI-H522 29.8 µM | OVCAR-5 > 100 µM | HT-29 > 100 µM | SF-295 53.5 µM | UACC-257 35 µM | Malme-3M 24.9 µM | SNB-78 44.1 µM | HCT-116 35 µM

O=C1/C(=C/c2ccc(Cl)cc2)COc2ccc(Br)cc21
inactive: SK-MEL-28 > 100 µM | 786-0 > 100 µM | COLO 205 > 100 µM | UO-31 80.4 µM | SF-539 > 100 µM | DMS-114 > 100 µM | RPMI-8226 6.22 µM | OVCAR-8 > 100 µM | NCI-H522 69.7 µM | OVCAR-5 > 100 µM | HT-29 > 100 µM | LOX IMVI > 100 µM | SF-295 > 100 µM | UACC-257 > 100 µM | Malme-3M > 100 µM | SNB-78 > 100 µM | HCT-116 > 100 µM

Cc1ccc(NC(=O)CC/C(CC(=O)c2ccc(F)cc2)=N\NC(=O)C(=O)NN)cc1C
inactive: SK-MEL-28 > 100 µM | 786-0 > 100 µM | COLO 205 > 100 µM | UO-31 > 100 µM | SF-539 > 100 µM | DMS-114 > 100 µM | OVCAR-8 > 100 µM | NCI-H522 > 100 µM | OVCAR-5 > 100 µM | HT-29 > 100 µM | LOX IMVI > 100 µM | SF-295 > 100 µM | UACC-257 > 100 µM | Malme-3M > 100 µM | SNB-78 > 100 µM | HCT-116 > 100 µM
